The values below come from patent publication US11932636B2, “RAD51 inhibitors” (Cyteir Therapeutics, Inc., priority 2019, dated 2024).

One assay concerns Daudi cells (AID positive). Kind of assay: Compound primary screening: cell death in AID positive Daudi cells (Cell-Titer Glo, Day 7). Format: cell-based. Conditions: Homo sapiens, 168 h; Daudi cells, AID positive; cell death on Day 7, Cell-Titer Glo; read-out: Cellular activity in AID + (Daudi). The essentials: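 AID-positive Daudi cells were seeded at 1250 cells per well and treated with serially diluted compound delivered from a DMSO/media master plate. Cultures were incubated at 37 °C, and cell death was measured on Day 7 with Cell-Titer Glo luminescence.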
With `CCNS(=O)(=O)c1cc(CC(=O)N(C)C(C)C)ccc1-c1cnc([C@H]2CC[C@H](NC(=O)OC(C)C)CC2)s1` [Compound 80, isopropyl trans-N-[4-[5-[4-[2-(isopropyl(methyl)amino)-2-oxo-ethyl]-2-(ethyl-sulfamoyl)phenyl]thiazol-2-yl]cyclohexyl]carbamate], the EC50 fell in the range of 100 to 1000 nM. On the same count and under the same terms, to `CCNS(=O)(=O)c1cc(CC(=O)N(C)Cc2ccccc2)ccc1-c1cnc([C@H]2CC[C@H](NC(=O)OC(C)C)CC2)s1` [Compound 81, isopropyl trans-N-[4-[5-[4-[2-(benzyl(methyl)amino)-2-oxo-ethyl]-2-(ethyl-sulfamoyl)phenyl]thiazol-2-yl]cyclohexyl]carbamate] belongs 100 to 1000 nM; to `CCNS(=O)(=O)c1cc(CC(=O)N2CCCC2)ccc1-c1cnc([C@H]2CC[C@H](NC(=O)OC(C)C)CC2)s1` [Compound 82, isopropyl trans-N-[4-[5-[4-[2-oxo-2-(pyrrolidin-1-yl)ethyl]-2-(ethyl-sulfamoyl)phenyl]thiazol-2-yl]cyclohexyl]carbamate], 100 to 1000 nM; to `CCNS(=O)(=O)c1cc(CC(=O)N2CCCCC2)ccc1-c1cnc([C@H]2CC[C@H](NC(=O)OC(C)C)CC2)s1` [Compound 83, isopropyl trans-N-[4-[5-[4-[2-oxo-2-(piperidin-1-yl)ethyl]-2-(ethyl-sulfamoyl)phenyl]thiazol-2-yl]cyclohexyl]carbamate], 100 to 1000 nM. Same read-out and setting: to `CCNS(=O)(=O)c1cc(CC(=O)N2CCOCC2)ccc1-c1cnc([C@H]2CC[C@H](NC(=O)OC(C)C)CC2)s1` [Compound 84, isopropyl trans-N-[4-[5-[4-[2-oxo-2-(morpholin-4-yl)ethyl]-2-(ethyl-sulfamoyl)phenyl]thiazol-2-yl]cyclohexyl]carbamate] belongs 100 to 1000 nM; to `CCNS(=O)(=O)c1cc(CC(=O)N2CC(O)C2)ccc1-c1cnc([C@H]2CC[C@H](NC(=O)OC(C)C)CC2)s1` [Compound 85, isopropyl trans-N-[4-[5-[4-[2-oxo-2-(3-hydroxyazetidin-1-yl)ethyl]-2-(ethyl-sulfamoyl)phenyl]thiazol-2-yl]cyclohexyl]carbamate], 100 to 1000 nM. For `CCNS(=O)(=O)c1cc(CC(N)=O)ccc1-c1cnc([C@H]2CC[C@H](NC(=O)OC(C)C)CC2)s1` [Compound 86, isopropyl trans-N-[4-[5-[4-[2-amino-2-oxo-ethyl]-2-(ethyl-sulfamoyl)phenyl]thiazol-2-yl]cyclohexyl]carbamate], the EC50 lay in the range of 100 to 1000 nM. As to `CCNS(=O)(=O)c1cc(CC(=O)N2CCC2)ccc1-c1cnc([C@H]2CC[C@H](NC(=O)OC(C)C)CC2)s1` [Compound 87, isopropyl trans-N-[4-[5-[4-[2-oxo-2-(azetidin-1-yl)ethyl]-2-(ethyl-sulfamoyl)phenyl]thiazol-2-yl]cyclohexyl]carbamate], the EC50 was 100 to 1000 nM.

As for `CC(C)OC(=O)N[C@H]1CC[C@H](c2ncc(-c3ccc(N)cc3S(=O)(=O)N3CCCC3)s2)CC1` [Compound 88, isopropyl trans-N-[4-[5-(4-amino-2-pyrrolidin-1-ylsulfonyl-phenyl)thiazol-2-yl]cyclohexyl]carbamate], the EC50 fell in the range of 100 to 1000 nM.

In the case of `CNc1ccc(-c2cnc([C@H]3CC[C@H](NC(=O)OC(C)C)CC3)s2)c(S(=O)(=O)N2CCCC2)c1` [Compound 89, isopropyl trans-N-[4-[5-(4-(methylamino)-2-pyrrolidin-1-ylsulfonyl-phenyl)thiazol-2-yl]cyclohexyl]carbamate], the EC50 lay within 100 to 1000 nM. On the same count and under the same terms, to `CC(C)OC(=O)N[C@H]1CC[C@H](c2ncc(-c3ccc(Nc4ncc[nH]4)cc3S(N)(=O)=O)s2)CC1` [Compound 90, isopropyl trans-N-[4-[5-[4-(1H-imidazol-2-ylamino)-2-sulfamoyl-phenyl]thiazol-2-yl]cyclohexyl]carbamate] belongs 100 to 1000 nM; to `CC(C)OC(=O)N[C@H]1CC[C@H](c2ncc(-c3ccc(Nc4ncc[nH]4)cc3S(=O)(=O)N(C)C)s2)CC1` [Compound 91, isopropyl trans-N-[4-[5-[2-(dimethylsulfamoyl)-4-(1H-imidazol-2-ylamino)phenyl]thiazol-2-yl]cyclohexyl]carbamate], 100 to 1000 nM; to `CC(C)OC(=O)N[C@H]1CC[C@H](c2ncc(-c3ccc(Nc4ncc[nH]4)cc3S(=O)(=O)N3CCCC3)s2)CC1` [Compound 92, isopropyl trans-N-[4-[5-[4-(1H-imidazol-2-ylamino)-2-pyrrolidin-1-ylsulfonyl-phenyl]thiazol-2-yl]cyclohexyl]carbamate], 100 to 1000 nM. `CNS(=O)(=O)c1ccccc1-c1cnc([C@H]2CC[C@H](NC(=O)OC(C)C)CC2)s1` [Compound 93, isopropyl trans-N-[4-[5-(2-methylsulfamoylphenyl)thiazol-2-yl]cyclohexyl]carbamate]: the EC50 fell in the range of 1000 to 10000 nM. Same read-out and setting: with `CCNS(=O)(=O)c1cc(C(=O)Nc2ncc[nH]2)ccc1-c1cnc([C@H]2CC[C@H](NC(=O)OC(C)C)CC2)s1` [Compound 94, isopropyl trans-N-[4-[5-[2-(ethylsulfamoyl)-4-(1H-imidazol-2-ylcarbamoyl)phenyl]thiazol-2-yl]cyclohexyl]carbamate] the figure was under 100 nM; with `CCNS(=O)(=O)c1cc(C(=O)N2CCCC2)ccc1-c1cnc([C@H]2CC[C@H](NC(=O)OC(C)C)CC2)s1` [Compound 95, isopropyl trans-N-[4-[5-[4-pyrrolidin-1-ylcarbonyl-2-(ethylsulfamoyl)phenyl]thiazol-2-yl]cyclohexyl]carbamate], 100 to 1000 nM; with `CCNS(=O)(=O)c1cc(CC(=O)NC(C)C)ccc1-c1cnc(N2CCN(C(=O)OC3COC3)CC2)s1` [Compound 96, oxetan-3-yl 4-(5-(2-(N-ethylsulfamoyl)-4-(2-(isopropylamino)-2-oxoethyl)phenyl)thiazol-2-yl)piperazine-1-carboxylate], over 10000 nM. On the same count and under the same terms, with `CC(C)OC(=O)N[C@H]1CC[C@H](c2ncc(-c3ccc(CC(=O)NCc4ccccc4)cc3S(=O)(=O)NC(C)(C)C)s2)CC1` [Compound 97, isopropyl trans-N-[4-[5-[4-[2-(benzylamino)-2-oxo-ethyl]-2-(tert-butylsulfamoyl)phenyl]thiazol-2-yl]cyclohexyl]carbamate] the figure was under 100 nM. Regarding `CC(C)(C)NS(=O)(=O)c1cc(CC(=O)NCc2ccccc2)ccc1-c1cnc([C@H]2CC[C@H](NC(=O)OC3COC3)CC2)s1` [Compound 98, oxetan-3-yl trans-N-[4-[5-[4-[2-(benzylamino)-2-oxo-ethyl]-2-(tert-butylsulfamoyl)phenyl]thiazol-2-yl]cyclohexyl]carbamate], the EC50 is under 100 nM. Same read-out and setting: to `CCNS(=O)(=O)c1cc(OCCC(C)C)ccc1-c1cnc([C@H]2CC[C@H](NC(=O)OC(C)C)CC2)s1` [Compound 99, isopropyl trans-N-[4-[5-[2-(ethylsulfamoyl)-4-isopentyloxy-phenyl]thiazol-2-yl]cyclohexyl]carbamate] belongs 100 to 1000 nM; to `CCNS(=O)(=O)c1cc(OCCC(C)C)ccc1-c1cnc([C@H]2CC[C@H](NC(=O)OC3COC3)CC2)s1` [Compound 100, oxetan-3-yl trans-N-[4-[5-[2-(ethylsulfamoyl)-4-isopentyloxy-phenyl]thiazol-2-yl]cyclohexyl]carbamate], 100 to 1000 nM; to `CC(C)CCOc1ccc(-c2cnc([C@H]3CC[C@H](NC(=O)OC(C)C)CC3)s2)c(S(=O)(=O)NC(C)(C)C)c1` [Compound 101, isopropyl trans-N-[4-[5-[2-(tert-butylsulfamoyl)-4-isopentyloxy-phenyl]thiazol-2-yl]cyclohexyl]carbamate], 1000 to 10000 nM. Still for that read-out and setting: to `CC(C)CCOc1ccc(-c2cnc([C@H]3CC[C@H](NC(=O)OC4COC4)CC3)s2)c(S(=O)(=O)NC(C)(C)C)c1` [Compound 102, oxetan-3-yl trans-N-[4-[5-[2-(tert-butylsulfamoyl)-4-isopentyloxy-phenyl]thiazol-2-yl]cyclohexyl]carbamate] belongs 1000 to 10000 nM.

On to `CCNS(=O)(=O)c1cc(Nc2nccn2C)ccc1-c1cnc([C@H]2CC[C@H](NC(=O)OC(C)C)CC2)s1` [Compound 105, isopropyl trans-N-[4-[5-[2-(ethylsulfamoyl)-4-[(1-methylimidazol-2-yl)amino]phenyl]thiazol-2-yl]cyclohexyl]carbamate], for which the EC50 was under 100 nM. The same measure, in the same setting: with `CCNS(=O)(=O)c1cc(Nc2nccn2C)ccc1-c1cnc([C@H]2CC[C@@H](NC(=O)OC(C)C)CC2)s1` [Compound 106, isopropyl cis-N-[4-[5-[2-(ethylsulfamoyl)-4-[(1-methylimidazol-2-yl)amino]phenyl]thiazol-2-yl]cyclohexyl]carbamate] the figure was under 100 nM; with `CCNS(=O)(=O)c1cc(Nc2nccn2CC(C)C)ccc1-c1cnc([C@H]2CC[C@H](NC(=O)OC(C)C)CC2)s1` [Compound 107, isopropyl trans-N-[4-[5-[2-(ethylsulfamoyl)-4-[(1-isobutylimidazol-2-yl)amino]phenyl]thiazol-2-yl]cyclohexyl]carbamate], under 100 nM; with `CCNS(=O)(=O)c1cc(N)ccc1-c1cnc([C@H]2CC[C@H](NC(=O)OC3CC3)CC2)s1` [Compound 108, cyclopropyl trans-N-[4-[5-[4-amino-2-(ethylsulfamoyl)phenyl]thiazol-2-yl]cyclohexyl]carbamate], under 100 nM.

Staying with this assay, now noted: Homo sapiens, Daudi, 168 h, read-out: Cellular activity in AID + (Daudi).
In the case of `CCNS(=O)(=O)c1cc(Cc2ncco2)ccc1-c1cnc([C@H]2CC[C@H](NC(=O)OC(C)C)CC2)s1` [Compound 103, isopropyl trans-N-[4-[5-[2-(ethylsulfamoyl)-4-(oxazol-2-ylmethyl)phenyl]thiazol-2-yl]cyclohexyl]carbamate], the EC50 was in the range of 100 to 1000 nM.

For the compound `CCNS(=O)(=O)c1cc(-c2ncco2)ccc1-c1cnc([C@H]2CC[C@H](NC(=O)OC(C)C)CC2)s1` [Compound 104, isopropyl trans-N-[4-[5-[2-(ethylsulfamoyl)-4-oxazol-2-yl-phenyl]thiazol-2-yl]cyclohexyl]carbamate], the EC50 was in the range of 100 to 1000 nM.
